According to patent US8541380B2, “C-aryl glucoside SGLT2 inhibitors and pharmaceutical compositions comprising same” (Green Cross Corporation, priority 2009, dated 2013):

Target: human SGLT2 (Homo sapiens (Human), UniProt P31639)
Assay: hSGLT2 inhibitory activity, sodium-dependent 14C-AMG glucose transport assay in CHO cells expressing hSGLT2
Type: cell-based
Details: 14C-AMG uptake, CHO cells expressing hSGLT2, 37° C. for 2 h
Text: Human SGLT2 (hSGLT2) gene was amplified by PCR from cDNA-Human Adult Normal Tissue Kidney (Invitrogen, Carlsbad, Calif.). The hSGLT2 sequence was cloned into pcDNA3.1(+) for mammalian expression and were stably transfected into Chinese hamster ovary (CHO) cells. SGLT2-expressing clones were selected based on resistance to G418 antibiotic (Geneticin®, Invitrogen, Carlsbad, Calif.) and activity in the ^14C-α-methyl-D-glucopyranoside (^14C-AMG) uptake assay.
For sodium-dependent glucose transport assay, cells expressing hSGLT2 were seeded into a 96-well culture plate at a density of 5×10^4 cells/well in RPMI medium 1640 containing 10% fetal bovine serum. The cells were used 1 day after plating. They were incubated in pretreatment buffer (10 mM HEPES, 5 mM Tris, 140 mM choline chloride, 2 mM KCl, 1 mM CaCl2, and 1 mM MgCl2, pH 7.4) at 37° C. for 10 min. They were then incubated in uptake buffer (10 mM HEPES, 5 mM Tris, 140 mM NaCl, 2 mM KCl, 1 mM CaCl2, 1 mM MgCl2, and 1 mM ^14C-nonlabeled AMG pH 7.4) containing ^14C-labeled (8 uM) and inhibitor or dimethyl sulfoxide (DMSO) vehicle at 37° C. for 2 h. Cells were washed twice with washing buffer (pretreatment buffer containing 10 mM AMG at room temperature) and then the radioactivity was measured using a liquid scintillation counter.

human SGLT2, sequence (P31639 whole entry): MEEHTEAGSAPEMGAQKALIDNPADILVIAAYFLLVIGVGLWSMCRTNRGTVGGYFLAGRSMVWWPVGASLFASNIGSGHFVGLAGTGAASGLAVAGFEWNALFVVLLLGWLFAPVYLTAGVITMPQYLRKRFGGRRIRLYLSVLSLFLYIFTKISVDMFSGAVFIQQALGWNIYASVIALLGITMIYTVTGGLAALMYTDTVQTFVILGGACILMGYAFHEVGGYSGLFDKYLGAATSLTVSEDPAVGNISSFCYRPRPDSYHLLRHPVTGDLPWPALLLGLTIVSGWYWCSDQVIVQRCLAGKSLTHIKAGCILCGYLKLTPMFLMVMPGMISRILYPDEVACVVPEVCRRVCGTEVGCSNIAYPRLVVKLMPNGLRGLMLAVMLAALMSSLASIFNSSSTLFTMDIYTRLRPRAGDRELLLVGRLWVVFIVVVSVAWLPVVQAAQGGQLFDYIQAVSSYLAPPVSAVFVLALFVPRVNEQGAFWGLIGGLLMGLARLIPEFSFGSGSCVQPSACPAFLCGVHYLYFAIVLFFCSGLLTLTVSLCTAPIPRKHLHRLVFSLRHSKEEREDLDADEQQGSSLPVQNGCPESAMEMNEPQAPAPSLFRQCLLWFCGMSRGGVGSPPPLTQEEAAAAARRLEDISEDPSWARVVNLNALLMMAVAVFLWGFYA

In order of falling IC50:
1. OC[C@H]1O[C@@H](c2ccc(Cl)c(Cc3nnc(CC(F)(F)F)s3)c2)[C@H](O)[C@@H](O)[C@@H]1O [Example 39, (2S,3R,4R,5S,6R)-2-(4-Chloro-3-((5-(2,2,2-trifluoroethyl)-1,3,4-thiadiazol-2-yl)methyl)phenyl)-6-(hydroxymethyl)tetrahydro-2H-pyran-3,4,5-triol]  758 nM
2. OC[C@H]1OC(c2ccc(Cl)c(Cc3nnc(/C=C/c4ccccc4)s3)c2)[C@H](O)[C@@H](O)[C@@H]1O (stereo partly drawn) [Example 27, (3R,4R,5S,6R,E)-2-(4-Chloro-3-((5-styryl-1,3,4-thiadiazol-2-yl)methyl)phenyl)-6-(hydroxymethyl)-tetrahydro-2H-pyran-3,4,5-triol]  730 nM
3. Cc1cccc(-c2nnc(Cc3cc([C@@H]4O[C@H](CO)[C@@H](O)[C@H](O)[C@H]4O)ccc3Cl)s2)n1 [Example 44, (2S,3R,4R,5S,6R)-2-(4-Chloro-3-((5-(6-methylpyridin-2-yl)-1,3,4-thiadiazol-2-yl)methyl)phenyl)-6-(hydroxymethyl)-tetrahydro-2H-pyran-3,4,5-triol]  638 nM
4. CC(Cc1nnc(Cc2cc(C3O[C@H](CO)[C@@H](O)[C@H](O)[C@H]3O)ccc2Cl)s1)c1ccccc1 (stereo partly drawn) [Example 26, (3R,4R,5S,6R)-2-(4-Chloro-3-((5-(2-phenylpropyl)-1,3,4-thiadiazol-2-yl)methyl)phenyl)-6-(hydroxymethyl)-tetrahydro-2H-pyran-3,4,5-triol]  548 nM
5. OC[C@H]1OC(c2ccc(Cl)c(Cc3nnc(C4CCCCC4)s3)c2)[C@H](O)[C@@H](O)[C@@H]1O (stereo partly drawn) [Example 24, (3R,4R,5S,6R)-2-(4-Chloro-3-((5-cyclohexyl-1,3,4-thiadiazol-2-yl)methyl)phenyl)-6-(hydroxymethyl)-tetrahydro-2H-pyran-3,4,5-triol]  542 nM
6. CC1CCC(Cc2nnc(Cc3cc(C4O[C@H](CO)[C@@H](O)[C@H](O)[C@H]4O)ccc3Cl)s2)CC1 (stereo partly drawn) [Example 25, (3R,4R,5S,6R)-2-(4-Chloro-3-((5-((4-methylcyclohexyl)methyl)-1,3,4-thiadiazol-2-yl)methyl)phenyl)-6-(hydroxymethyl)-tetrahydro-2H-pyran-3,4,5-triol]  460 nM
7. CCCCc1nnc(Cc2cc([C@@H]3O[C@H](CO)[C@@H](O)[C@H](O)[C@H]3O)ccc2Cl)s1 [Example 32, (2S,3R,4R,5S,6R)-2-(3-((5-Butyl-1,3,4-thiadiazol-2-yl)methyl)-4-chlorophenyl)-6-(hydroxymethyl)-tetrahydro-2H-pyran-3,4,5-triol]  379 nM
8. CCCCCc1nnc(Cc2cc([C@@H]3O[C@H](CO)[C@@H](O)[C@H](O)[C@H]3O)ccc2Cl)s1 [Example 33, (2S,3R,4R,5S,6R)-2-(4-Chloro-3-((5-pentyl-1,3,4-thiadiazol-2-yl)methyl)phenyl)-6-(hydroxymethyl)-tetrahydro-2H-pyran-3,4,5-triol]  353 nM
9. OC[C@H]1O[C@@H](c2ccc(Cl)c(Cc3nnc(-c4cc5ccccc5o4)s3)c2)[C@H](O)[C@@H](O)[C@@H]1O [Example 30, (2S,3R,4R,5S,6R)-2-(3-((5-(Benzofuran-2-yl)-1,3,4-thiadiazol-2-yl)methyl)-4-chlorophenyl)-6-(hydroxymethyl)-tetrahydro-2H-pyran-3,4,5-triol]  249 nM
10. CCCc1nnc(Cc2cc([C@@H]3O[C@H](CO)[C@@H](O)[C@H](O)[C@H]3O)ccc2Cl)s1 [Example 31, (2S,3R,4R,5S,6R)-2-(4-Chloro-3-((5-propyl-1,3,4-thiadiazol-2-yl)methyl)phenyl)-6-(hydroxymethyl)-tetrahydro-2H-pyran-3,4,5-triol]  214 nM
11. COC(=O)c1ccc(Cc2cc([C@@H]3O[C@H](CO)[C@@H](O)[C@H](O)[C@H]3O)ccc2Cl)nn1 [Example 49, Methyl 6-(2-chloro-5-((2S,3R,4R,5S,6R)-3,4,5-trihydroxy-6-(hydroxymethyl)-tetrahydro-2H-pyran-2-yl)benzyl)pyridazine-3-carboxylate]  201 nM
12. OC[C@H]1O[C@@H](c2ccc(Cl)c(Cc3nnc(-c4ccnnc4)s3)c2)[C@H](O)[C@@H](O)[C@@H]1O [Example 43, (2S,3R,4R,5S,6R)-2-(4-Chloro-3-((5-(pyridazin-4-yl)-1,3,4-thiadiazol-2-yl)methyl)phenyl)-6-(hydroxymethyl)-tetrahydro-2H-pyran-3,4,5-triol]  190 nM
13. OC[C@H]1O[C@@H](c2ccc(Cl)c(Cc3nnc(C(F)(F)F)s3)c2)[C@H](O)[C@@H](O)[C@@H]1O [Example 38, (2S,3R,4R,5S,6R)-2-(4-Chloro-3-((5-(trifluoromethyl)-1,3,4-thiadiazol-2-yl)methyl)phenyl)-6-(hydroxymethyl)tetrahydro-2H-pyran-3,4,5-triol]  155 nM
14. COc1nnc(Cc2cc([C@@H]3O[C@H](CO)[C@@H](O)[C@H](O)[C@H]3O)ccc2Cl)s1 [Example 41, (2S,3R,4R,5S,6R)-2-(4-Chloro-3-((5-methoxy-1,3,4-thiadiazol-2-yl)methyl)phenyl)-6-(hydroxymethyl)-tetrahydro-2H-pyran-3,4,5-triol]  146 nM
15. OC[C@H]1O[C@@H](c2ccc(Cl)c(Cc3nnc(-c4ccc(Cl)cc4)s3)c2)[C@H](O)[C@@H](O)[C@@H]1O [Example 29, (2S,3R,4R,5S,6R)-2-(4-chloro-3-((5-(4-Chlorophenyl)-1,3,4-thiadiazol-2-yl)methyl)phenyl)-6-(hydroxymethyl)-tetrahydro-2H-pyran-3,4,5-triol]  126 nM
16. CCCCCCCc1nnc(Cc2cc([C@@H]3O[C@H](CO)[C@@H](O)[C@H](O)[C@H]3O)ccc2Cl)s1 [Example 34, (2S,3R,4R,5S,6R)-2-(4-Chloro-3-((5-heptyl-1,3,4-thiadiazol-2-yl)methyl)phenyl)-6-(hydroxymethyl)-tetrahydro-2H-pyran-3,4,5-triol]  122 nM
17. Cc1ccc(-c2nnc(Cc3cc(C4O[C@H](CO)[C@@H](O)[C@H](O)[C@H]4O)ccc3Cl)s2)cc1 (stereo partly drawn) [Example 22, (3R,4R,5S,6R)-2-(4-chloro-3-((5-p-tolyl-1,3,4-thiadiazol-2-yl)methyl)phenyl)-6-(hydroxymethyl)-tetrahydro-2H-pyran-3,4,5-triol]  103 nM
18. CCCCCCCCOc1ccc(Cc2cc([C@@H]3O[C@H](CO)[C@@H](O)[C@H](O)[C@H]3O)ccc2Cl)nn1 [Example 56, (2S,3R,4R,5S,6R)-2-(4-Chloro-3-((6-(octyloxy)pyridazin-3-yl)methyl)phenyl)-6-(hydroxymethyl)-tetrahydro-2H-pyran-3,4,5-triol]  50.5 nM
19. OC[C@H]1OC(c2ccc(Cl)c(Cc3nnc(-c4cccnc4)s3)c2)[C@H](O)[C@@H](O)[C@@H]1O (stereo partly drawn) [Example 21, (3R,4R,5S,6R)-2-(4-Chloro-3-((5-(pyridin-3-yl)-1,3,4-thiadiazol-2-yl)methyl)phenyl)-6-(hydroxymethyl)-tetrahydro-2H-pyran-3,4,5-triol]  45.3 nM
20. Cc1cc(-c2nnc(Cc3cc([C@@H]4O[C@H](CO)[C@@H](O)[C@H](O)[C@H]4O)ccc3Cl)s2)ccn1 [Example 45, (2S,3R,4R,5S,6R)-2-(4-Chloro-3-((5-(2-methylpyridin-4-yl)-1,3,4-thiadiazol-2-yl)methyl)phenyl)-6-(hydroxymethyl)-tetrahydro-2H-pyran-3,4,5-triol]  36.4 nM
21. CCCc1ccc(-c2nnc(Cc3cc(C4O[C@H](CO)[C@@H](O)[C@H](O)[C@H]4O)ccc3Cl)s2)cc1 (stereo partly drawn) [Example 23, (3R,4R,5S,6R)-2-(4-Chloro-3-((5-(4-propylphenyl)-1,3,4-thiadiazol-2-yl)methyl)phenyl)-6-(hydroxymethyl)-tetrahydro-2H-pyran-3,4,5-triol]  24.9 nM
22. CCCCCOc1ccc(Cc2cc([C@@H]3O[C@H](CO)[C@@H](O)[C@H](O)[C@H]3O)ccc2Cl)nn1 [Example 54, (2S,3R,4R,5S,6R)-2-(4-Chloro-3-((6-(pentyloxy)pyridazin-3-yl)methyl)phenyl)-6-(hydroxymethyl)-tetrahydro-2H-pyran-3,4,5-triol]  17 nM
23. OC[C@H]1O[C@@H](c2ccc(Cl)c(Cc3nnc(-c4ccccc4)s3)c2)[C@H](O)[C@@H](O)[C@@H]1O [Example 28, (2S,3R,4R,5S,6R)-2-(4-Chloro-3-((5-phenyl-1,3,4-thiadiazol-2-yl)methyl)phenyl)-6-(hydroxymethyl)-tetrahydro-2H-pyran-3,4,5-triol]  16.6 nM
24. CSc1nnc(Cc2cc([C@@H]3O[C@H](CO)[C@@H](O)[C@H](O)[C@H]3O)ccc2Cl)s1 [Example 40, (2S,3R,4R,5S,6R)-2-(4-Chloro-3-((5-(methylthio)-1,3,4-thiadiazol-2-yl)methyl)phenyl)-6-(hydroxymethyl)-tetrahydro-2H-pyran-3,4,5-triol]  10.9 nM
25. OC[C@H]1O[C@@H](c2ccc(Cl)c(Cc3nnc(-c4ccc(-c5ccccc5)o4)s3)c2)[C@H](O)[C@@H](O)[C@@H]1O [Example 37, (2S,3R,4R,5S,6R)-2-(4-Chloro-3-((5-(5-phenylfuran-2-yl)-1,3,4-thiadiazol-2-yl)methyl)phenyl)-6-(hydroxymethyl)-tetrahydro-2H-pyran-3,4,5-triol]  10.6 nM
26. OC[C@H]1O[C@@H](c2ccc(Cl)c(Cc3nnc(-c4cnccn4)s3)c2)[C@H](O)[C@@H](O)[C@@H]1O [Example 42, (2S,3R,4R,5S,6R)-2-(4-Chloro-3-((5-(pyrazin-2-yl)-1,3,4-thiadiazol-2-yl)methyl)phenyl)-6-(hydroxymethyl)-tetrahydro-2H-pyran-3,4,5-triol]  4.06 nM
